Experimental findings from PubChem BioAssay (NCI) are described below.

Test systems include MDA-MB-435; NCI-H226 lung; OVCAR-8 ovarian; A498 renal; EKVX NSCLC; MALME-3M melanoma; UACC-62 melanoma; SW-620 colon; CAKI-1 renal; DU-145 prostate.
Common to all, as to assay: NCI tumour cell line growth inhibition, 48 h

Where “and” joins values, the source holds several entries; their conditions need not be identical. Equal values may be shown once.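 48-hour exposure; five concentrations; linearly interpolated endpoints. The concentration for 50% growth inhibition is given as GI50. TGI denotes the concentration required for complete inhibition of growth.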

On to `CC1(C)CC([P+](c2ccccc2)(c2ccccc2)c2ccccc2)=NN1`, for which the GI50 is 2.79 µM with MDA-MB-435; 5.53 µM with NCI-H226 lung; 5.92 µM with OVCAR-8 ovarian; 4.24 µM in the test on A498 renal; 2.42 µM in the test on EKVX NSCLC; 3.43 µM in the test with MALME-3M melanoma. Besides, the GI50 was 3.17 µM in the test with UACC-62 melanoma, 4.57 µM in the test with SW-620 colon, more than 100 µM in the test on CAKI-1 renal and 4.34 µM in the test on DU-145 prostate. Moreover, the TGI in the test on MDA-MB-435 was more than 100 µM; in the test on NCI-H226 lung, 84.5 µM; in the test with OVCAR-8 ovarian it was more than 100 µM; in the test with A498 renal, 35.7 µM; in the test on EKVX NSCLC, more than 100 µM; in the test with MALME-3M melanoma, more than 100 µM. In addition, the TGI in the test with UACC-62 melanoma, with SW-620 colon, with CAKI-1 renal and with DU-145 prostate was more than 100 µM each time.

As to `COc1cc(NC(=O)NCc2ccco2)ccc1-c1ccc(NC(=O)NCc2ccco2)cc1OC`, the GI50 is 4.14 µM with MDA-MB-435; 1.46 µM with NCI-H226 lung; 1.88 µM with OVCAR-8 ovarian; 1.72 µM in the test on A498 renal; 3.26 µM in the test with EKVX NSCLC; 1.65 µM in the test on MALME-3M melanoma. Besides, the GI50 in the test on UACC-62 melanoma is 1.25 µM; in the test on SW-620 colon, 6.15 µM; in the test with CAKI-1 renal, 10.1 µM; in the test with DU-145 prostate it was 3.01 µM. Moreover, the TGI in the test on MDA-MB-435 is more than 100 µM; in the test with NCI-H226 lung, 7.92 µM; with OVCAR-8 ovarian, 11.7 µM; in the test with A498 renal, 8.25 µM; in the test on EKVX NSCLC it was 31 µM; in the test with MALME-3M melanoma it was 5.56 µM. Further, the TGI with UACC-62 melanoma was 5.18 µM; in the test with SW-620 colon, more than 100 µM; in the test with CAKI-1 renal, more than 100 µM; with DU-145 prostate, more than 100 µM.

`COc1cc(F)c(/C=C/c2cc(/C=C/c3cc(OC)c(OC)cc3F)n(-c3cc(F)cc(F)c3)n2)cc1OC`: the GI50 with MDA-MB-435 was 2.03 µM; in the test with NCI-H226 lung it was 14.8 µM; in the test with A498 renal, 14.5 µM; with EKVX NSCLC, 4.94 µM; in the test on MALME-3M melanoma, 1.78 µM; with UACC-62 melanoma, 1.65 µM. The GI50 in the test with SW-620 colon is 2.44 µM; in the test with CAKI-1 renal, 12.8 µM; with DU-145 prostate, 3.68 µM. Further, the TGI stood at 4.63 µM with MDA-MB-435; 43.6 µM with NCI-H226 lung; 28.8 µM in the test with A498 renal; 55.9 µM with EKVX NSCLC; 4.06 µM with MALME-3M melanoma; 3.32 µM with UACC-62 melanoma. Also, the TGI in the test with SW-620 colon worked out at 5.86 µM; with CAKI-1 renal it was 34.4 µM; in the test with DU-145 prostate it was 18.1 µM.

`Cc1ccc(Nc2cc(C)nc(NCCCNc3ccnc4cc(Cl)ccc34)n2)cc1`: the GI50 with MDA-MB-435 is 1.41 µM; in the test with NCI-H226 lung, 2.14 µM; in the test on OVCAR-8 ovarian, 1.67 µM; with A498 renal, 1.06 µM; in the test on MALME-3M melanoma, 1.82 µM; in the test with UACC-62 melanoma it was 1.68 µM. Moreover, the GI50 is 1.31 µM with SW-620 colon, 1.46 µM in the test with CAKI-1 renal and 1.97 µM in the test on DU-145 prostate. Moreover, the TGI was determined as 2.7 µM with MDA-MB-435; 5.91 µM in the test with NCI-H226 lung; 3.25 µM in the test with OVCAR-8 ovarian; 2.4 µM with A498 renal; 3.74 µM in the test with MALME-3M melanoma; 3.19 µM in the test on UACC-62 melanoma. Moreover, the TGI amounted to 2.83 µM in the test on SW-620 colon, 2.85 µM in the test on CAKI-1 renal and 4.14 µM in the test on DU-145 prostate.

With `CC(C)C[C@H](NC(=O)CCn1ccc2ncccc2c1=O)B(O)O`, the GI50 in the test with MDA-MB-435 was 2.6 µM; with NCI-H226 lung it was 2.22 µM; in the test with OVCAR-8 ovarian, 27.4 µM; with A498 renal it was 2.66 µM; in the test on MALME-3M melanoma, 5.2 µM; in the test with UACC-62 melanoma it was 5.93 µM. Besides, the GI50 in the test on SW-620 colon is 4.23 µM; in the test with CAKI-1 renal it was 21.6 µM; in the test with DU-145 prostate it was 19.6 µM. Besides, the TGI in the test on MDA-MB-435 was 8.86 µM; with NCI-H226 lung, 6.13 µM; in the test on OVCAR-8 ovarian, more than 100 µM; with A498 renal, 21.3 µM; in the test with MALME-3M melanoma it was 48.9 µM; in the test with UACC-62 melanoma, 61.7 µM. The TGI in the test with SW-620 colon is more than 45.9 µM; in the test with CAKI-1 renal it was more than 100 µM; with DU-145 prostate, more than 100 µM.

On to `CN1C[C@@H]2Cn3c(c(C4=C(c5cn(C)c6ccccc56)C(=O)NC4=O)c4ccccc43)C[C@H]2C1`, for which the GI50 in the test with MDA-MB-435 is 3.43 µM and 3.16 µM; in the test on NCI-H226 lung, 4.53 µM and 4.06 µM; in the test on OVCAR-8 ovarian, 4.74 µM and 4.35 µM; in the test with A498 renal, 4.76 µM and 4.45 µM; in the test with MALME-3M melanoma, 3.78 µM and 3.89 µM; with UACC-62 melanoma it was 3.89 µM and 3.61 µM. The GI50 in the test on SW-620 colon is 4.34 µM and 3.22 µM; in the test on CAKI-1 renal, 3.43 µM and 4.29 µM; with DU-145 prostate, 6.27 µM and 5.46 µM. Also, the TGI in the test on MDA-MB-435 was 7.09 µM; in the test on NCI-H226 lung it was 15 µM and 10.9 µM; in the test with OVCAR-8 ovarian, 11.4 µM and 11.1 µM; with A498 renal it was 8.59 µM and 8.23 µM; in the test on MALME-3M melanoma, 7.36 µM and 8.03 µM; in the test on UACC-62 melanoma, 7.64 µM and 7.19 µM. The TGI was 9.21 µM and 8.94 µM in the test on SW-620 colon; 8.28 µM and 9.96 µM in the test on CAKI-1 renal; 16.3 µM and 14.7 µM in the test with DU-145 prostate.

On to `Cc1cnccc1N=Nc1ccc(N(C)C)cc1`, for which the TGI was 41.2 µM in the test with MDA-MB-435; 29.1 µM in the test with NCI-H226 lung; 60.1 µM in the test on OVCAR-8 ovarian; 94.1 µM with A498 renal; 32.9 µM in the test on EKVX NSCLC; more than 100 µM in the test with MALME-3M melanoma. For the same compound, the TGI is 40.7 µM in the test with UACC-62 melanoma, more than 100 µM in the test on SW-620 colon, more than 100 µM with CAKI-1 renal and more than 100 µM in the test on DU-145 prostate.

`C=C1C(=O)OC2/C=C(\CO)CC/C=C(\CO)CC(OC(=O)C(C)C)C12` (configuration not stated): the TGI in the test with MDA-MB-435 stood at 29.5 µM; in the test on NCI-H226 lung, 34.2 µM; with OVCAR-8 ovarian, 45.7 µM; with A498 renal, 59.2 µM; in the test on EKVX NSCLC it was 38.8 µM; with MALME-3M melanoma it was 4.45 µM. Besides, the TGI with UACC-62 melanoma came to 29.4 µM; in the test on SW-620 colon, 22.9 µM; in the test with CAKI-1 renal, 3.31 µM; in the test on DU-145 prostate it was 29.5 µM.
